Test results from PMC4729137, “Functional analysis of androgen receptor mutations that confer anti-androgen resistance identified in circulating cell-free DNA from prostate cancer patients” (Genome Biology, 2016).
Changes are numbered by the printed parent chain.

How the values were obtained:
Assay in all cases: cell-based
T878A-AR = target: T1, T878A-AR (Homo sapiens, UniProt P10275, T878A)
T1 sequence (P10275 1-920 T878A): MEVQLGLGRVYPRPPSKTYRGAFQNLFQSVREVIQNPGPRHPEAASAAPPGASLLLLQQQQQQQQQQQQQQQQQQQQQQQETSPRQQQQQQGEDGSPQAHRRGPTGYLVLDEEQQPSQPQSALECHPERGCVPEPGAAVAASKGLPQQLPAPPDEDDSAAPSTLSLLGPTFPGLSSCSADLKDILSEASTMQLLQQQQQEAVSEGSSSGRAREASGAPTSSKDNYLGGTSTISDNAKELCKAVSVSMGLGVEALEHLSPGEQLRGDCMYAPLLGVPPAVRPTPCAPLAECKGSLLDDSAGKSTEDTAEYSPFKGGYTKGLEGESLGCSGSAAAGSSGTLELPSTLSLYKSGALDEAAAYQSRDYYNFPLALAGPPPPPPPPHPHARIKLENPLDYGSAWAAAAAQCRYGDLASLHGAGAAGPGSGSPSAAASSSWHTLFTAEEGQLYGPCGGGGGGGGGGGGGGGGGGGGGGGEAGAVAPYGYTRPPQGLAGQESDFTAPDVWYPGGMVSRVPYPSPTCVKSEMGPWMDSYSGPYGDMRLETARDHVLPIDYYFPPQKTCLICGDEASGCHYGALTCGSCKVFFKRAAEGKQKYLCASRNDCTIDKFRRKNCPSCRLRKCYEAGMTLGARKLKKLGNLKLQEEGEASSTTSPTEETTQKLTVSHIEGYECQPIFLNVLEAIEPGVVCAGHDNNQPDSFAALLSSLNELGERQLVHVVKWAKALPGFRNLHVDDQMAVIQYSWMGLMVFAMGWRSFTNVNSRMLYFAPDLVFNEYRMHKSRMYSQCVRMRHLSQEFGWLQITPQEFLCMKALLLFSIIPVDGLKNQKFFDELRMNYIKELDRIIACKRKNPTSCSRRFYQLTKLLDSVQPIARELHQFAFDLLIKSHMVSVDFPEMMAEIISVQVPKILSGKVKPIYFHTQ

D880E-AR = target: T2, D880E-AR (Homo sapiens, UniProt P10275, D880E)
T2 sequence (P10275 1-920 D880E): T1 sequence (P10275 1-920 T878A) with A878T, D880E

L882I-AR = target: T3, L882I-AR (Homo sapiens, UniProt P10275, L882I)
T3 sequence (P10275 1-920 L882I): T1 sequence (P10275 1-920 T878A) with A878T, L882I

Measured: EC50

C[C@]12CCC(=O)C=C1CC[C@@H]1[C@@H]2[C@@H](O)C[C@@]2(C)[C@H]1CC[C@]2(O)C(=O)CO [hydrocortisone]
> 500 nM: all assays above
